From patent US20250332266A1, “COMPOUNDS FOR THE DEGRADATION OF EGFR KINASE” (BeiGene Switzerland GmbH, priority 2022, published 2025)
Read-outs that look alike come from different tables or passages of the source.

Columns and labels:
[1] = amide bond, 15-membered ring, 25.0 °C
[2] = target: T1, EGFR L858R/C797S (H1975-clone #8) (Homo sapiens, UniProt P00533, C797S/L858R); assay: EGFR degradation, HTRF total-EGFR assay, H1975-clone #8 (L858R/C797S); type: cell-based; conditions: 16 h treatment
T1 construct: expressed in transfected cells; host or cells: H1975 (clone #8), lentiviral transduction, endogenous EGFR knocked out
Protocol: H1975-clone #8 (L858R/C797S): EGFR-L858R/C797S were stably expressed in H1975 cell lines by lentivirus-mediated over-expression, respectively. The EGFR over-expressed cells then underwent knockout, in which the EGFR targeting sgRNA was designed to only target the endogenous EGFR copies and preserve the exogenous EGFR copies. Followed by the knockout, the edited H1975 cells were seeded in 96 well plates at the concentration of 1 cell/well, cultured for about 2 weeks to allow single clones formation. The formed clones were screened by DNA sequencing and whole exon sequencing analysis for the desired edition. H1975-clone #8 were finally confirmed as homozygous L858R/C797S EGFR clones.
(§1) H1975-#8 and BaF3-L858R cells are treated with compounds diluted in 0.1% DMSO cell culture medium on day 2, incubate for 16 h, 37° C., 5% CO2. the final concentration of compounds in all assay starts with 10 uM, 5-fold dilution, total 8 doses were included.
(§2) Total-EGFR cellular kit (64NG1PEH) were used for evaluating EGFR degradation.
(§3) After 16 h treatment, for H1975-#8 cells, add 100 μL HTRF 1× lysis buffer to each well; for BaF3-L858R cells, add 20 μL 4× lysis buffer to each well; seal the plate and incubate 1 hour at room temperature on a plate shaker; Once the cells are lysed, 16 μL of cell lysate are transferred to a PE 384-well HTRF detection plate; 4 μL of pre-mixed HTRF antibodies are added to each well; cover the plate with a plate sealer, spin 1000 rpm for 1 min, incubate overnight at room temperature; read on BMG PheraStar with HTRF protocol (337 nm-665 nm-620 nm).
(§4) The inhibition (degradation) percentage of the compound was calculated by the following equation:
(§5) Inhibition percentage of Compound=100−100×(Signal−low control)/(High control−low control), wherein signal=each test compound group
(§6) High control=Cell group with added DMSO and without compound, indicating microplate readings without EGFR degradation.
(§7) Imax (Dmax) is the maximum percentage of inhibition (degradation).
(§8) The IC50 (DC50) value of a compound can be obtained by fitting the following equation
(§9) Wherein, X and Y are known values, and IC50, Hillslope, Top and Bottom are the parameters obtained by fitting with software. Y is the inhibition percentage (calculated from the equation), X is the concentration of the compound; IC50 is the concentration of the compound when the 50% inhibition is reached. The smaller the IC50 value is, the stronger the inhibitory ability of the compound is. Vice versa, the higher the IC50 value is, the weaker the ability the inhibitory ability of the compound is; Hillslope represents the slope of the fitted curve, generally around 1*; Bottom represents the minimum value of the curve obtained by data fitting, which is generally 0%±20%; Top represents the maximum value of the curve obtained by data fitting, which is generally 100%±20%. The experimental data were fitted by calculating and analyzing with Dotmatics data analysis software.

EGFR L858R (BaF3-L858R) = target: T2, EGFR L858R (BaF3-L858R) (Homo sapiens, UniProt P00533, L858R); assay: EGFR degradation, HTRF total-EGFR assay, BaF3-L858R cells; type: cell-based; conditions: 16 h treatment
T2 construct: host or cells: BaF3
Protocol: BaF3-L858R (abbv. L858R) cell were purchased from Kangyuan Bochuang Biotechnology (Beijing) Co., Ltd.
as §1, §2, §3, §4, §5, §6, §7, §8, §9

T2 sequence (P00533 25-1210 L858R): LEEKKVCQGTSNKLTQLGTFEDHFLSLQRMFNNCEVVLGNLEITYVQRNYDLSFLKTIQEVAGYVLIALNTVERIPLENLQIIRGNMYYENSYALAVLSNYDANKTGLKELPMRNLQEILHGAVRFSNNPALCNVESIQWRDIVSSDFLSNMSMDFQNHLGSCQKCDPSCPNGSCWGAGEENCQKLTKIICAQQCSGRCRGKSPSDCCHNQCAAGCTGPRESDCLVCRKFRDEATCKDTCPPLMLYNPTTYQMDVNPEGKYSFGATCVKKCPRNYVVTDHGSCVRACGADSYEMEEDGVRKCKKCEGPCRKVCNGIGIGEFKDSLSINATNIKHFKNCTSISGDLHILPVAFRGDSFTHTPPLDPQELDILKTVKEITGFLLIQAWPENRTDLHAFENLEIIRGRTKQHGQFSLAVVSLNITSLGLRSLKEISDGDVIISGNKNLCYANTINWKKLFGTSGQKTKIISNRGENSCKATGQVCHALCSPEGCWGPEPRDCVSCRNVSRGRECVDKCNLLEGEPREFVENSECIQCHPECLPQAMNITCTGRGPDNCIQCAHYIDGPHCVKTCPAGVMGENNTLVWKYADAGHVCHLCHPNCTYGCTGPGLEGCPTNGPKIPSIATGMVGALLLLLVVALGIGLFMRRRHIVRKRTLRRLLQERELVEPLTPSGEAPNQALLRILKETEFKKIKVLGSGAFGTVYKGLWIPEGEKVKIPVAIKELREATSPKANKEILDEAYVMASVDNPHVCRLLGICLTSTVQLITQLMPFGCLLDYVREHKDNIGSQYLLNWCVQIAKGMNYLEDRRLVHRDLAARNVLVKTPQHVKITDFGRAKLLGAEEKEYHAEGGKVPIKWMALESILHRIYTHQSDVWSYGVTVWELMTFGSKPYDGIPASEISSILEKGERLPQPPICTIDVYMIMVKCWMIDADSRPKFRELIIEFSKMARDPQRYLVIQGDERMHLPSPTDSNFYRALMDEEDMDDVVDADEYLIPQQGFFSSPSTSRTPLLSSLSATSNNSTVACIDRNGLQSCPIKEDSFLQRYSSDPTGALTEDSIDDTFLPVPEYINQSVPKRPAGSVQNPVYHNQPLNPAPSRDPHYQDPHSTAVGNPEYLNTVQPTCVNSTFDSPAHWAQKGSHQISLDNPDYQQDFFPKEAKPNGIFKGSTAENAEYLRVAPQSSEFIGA
T1 sequence (P00533 25-1210 C797S/L858R): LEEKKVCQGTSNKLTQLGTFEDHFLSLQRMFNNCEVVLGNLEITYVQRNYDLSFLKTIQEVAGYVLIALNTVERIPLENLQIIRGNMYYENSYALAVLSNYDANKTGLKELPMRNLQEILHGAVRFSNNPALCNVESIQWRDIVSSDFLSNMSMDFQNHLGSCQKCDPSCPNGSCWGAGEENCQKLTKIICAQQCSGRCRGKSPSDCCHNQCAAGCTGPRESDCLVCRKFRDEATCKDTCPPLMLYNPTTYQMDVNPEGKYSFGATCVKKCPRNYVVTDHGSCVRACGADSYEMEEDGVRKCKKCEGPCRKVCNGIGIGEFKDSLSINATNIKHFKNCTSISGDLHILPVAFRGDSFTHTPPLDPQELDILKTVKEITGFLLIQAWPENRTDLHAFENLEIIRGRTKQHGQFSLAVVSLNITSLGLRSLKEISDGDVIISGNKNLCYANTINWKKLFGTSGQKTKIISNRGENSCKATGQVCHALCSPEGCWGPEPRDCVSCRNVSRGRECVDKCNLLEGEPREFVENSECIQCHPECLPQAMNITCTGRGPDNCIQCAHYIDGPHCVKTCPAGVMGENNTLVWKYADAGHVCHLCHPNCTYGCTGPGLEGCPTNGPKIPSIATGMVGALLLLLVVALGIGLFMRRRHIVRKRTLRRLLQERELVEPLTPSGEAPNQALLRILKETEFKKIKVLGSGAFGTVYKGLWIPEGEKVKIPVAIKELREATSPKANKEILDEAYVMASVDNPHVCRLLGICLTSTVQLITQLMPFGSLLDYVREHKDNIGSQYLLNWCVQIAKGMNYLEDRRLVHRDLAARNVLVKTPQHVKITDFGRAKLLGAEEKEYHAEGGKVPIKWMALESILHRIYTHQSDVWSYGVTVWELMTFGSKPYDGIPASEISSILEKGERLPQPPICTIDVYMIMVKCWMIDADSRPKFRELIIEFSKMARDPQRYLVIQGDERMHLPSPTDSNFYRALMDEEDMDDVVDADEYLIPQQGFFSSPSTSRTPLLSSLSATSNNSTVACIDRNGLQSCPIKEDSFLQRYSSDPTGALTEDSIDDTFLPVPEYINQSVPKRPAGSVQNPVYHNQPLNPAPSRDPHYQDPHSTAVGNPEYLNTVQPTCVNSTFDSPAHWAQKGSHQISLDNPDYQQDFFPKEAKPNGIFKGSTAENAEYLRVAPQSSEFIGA

SMILES: COC(=O)c1cc(C)nc(-c2cnn(C)c2OCC2CC(Cn3c(=N)[nH]c4ccc(Br)cc43)C2)c1 (centres unmarked)
- ring closure, isolated yield ([1]; the molecule shown is the open-chain precursor, LiHMDS, THF, 116.0 mM): 74.7%

SMILES: Cc1cc(C(=O)O)cc(-c2cnn(C)c2OCC2CC(Cn3c(=N)[nH]c4ccc(CN5CCN(C(=O)OC(C)(C)C)CC5)cc43)C2)n1 (centres unmarked)
- ring closure, isolated yield ([1]; the molecule shown is the open-chain precursor, HATU/DIEA, DMF, 70.0 mM): 50.1%

SMILES: Cc1cc2cc(n1)-c1cnn(C)c1OCC1CC(C1)Cn1c(nc3ccc(N4CCN(C(=O)OC(C)(C)C)CC4=O)cc31)NC2=O
- ring closure, isolated yield ([1]; from Cc1cc(C(=O)O)cc(-c2cnn(C)c2OCC2CC(Cn3c(N)nc4ccc(N5CCN(C(=O)OC(C)(C)C)CC5=O)cc43)C2)n1, HATU/DIEA, DCM, 34.0 mM): 51.6%

SMILES: CCc1nc(C2CCC(=O)NC2=O)ccc1N1CCC(N2CC(N3CCN(c4ccc5c(c4)N4C[C@H]6C[C@@H](COc7c(cnn7C)-c7cc(cc(C)n7)C(=O)/N=C/4N5)C6)CC3)C2)CC1 (some centres unmarked) [Example 149, 3-(5-(4-(3-(4-((7^1s,7^3s,E)-1^1,2^6-dimethyl-3-oxo-5^2,5^3-dihydro-1^1H,5^1H-9-oxa-4-aza-5(2,1)-benzo[d]imidazola-2(2,4)-pyridina-1(4,5)-pyrazola-7(1,3)-cyclobutanacyclononaphane-5^6-yl)piperazin-1-yl)azetidin-1-yl)piperidin-1-yl)-6-ethylpyridin-2-yl)piperidine-2,6-dione]
- DC50 [2]: 3.3 nM
- Dmax [2]: 52.2%
- DC50 (EGFR L858R (BaF3-L858R)): 16 nM
- Dmax (EGFR L858R (BaF3-L858R)): 71.1%

SMILES: Cc1cc2cc(n1)-c1cnn(C)c1OC[C@H]1C[C@@H](CN3/C(=N/C2=O)Nc2ccc(N4CCN(C5CN(CCc6c(C)cc(C7CCC(=O)NC7=O)nc6C)C5)CC4)cc23)C1 (some centres unmarked) [Example 150, 3-(5-(2-(3-(4-((7^1s,7^3s,E)-1^1,2^6-dimethyl-3-oxo-5^2,5^3-dihydro-1^1H,5^1H-9-oxa-4-aza-5(2,1)-benzo[d]imidazola-2(2,4)-pyridina-1(4,5)-pyrazola-7(1,3)-cyclobutanacyclononaphane-5^6-yl)piperazin-1-yl)azetidin-1-yl)ethyl)-4,6-dimethylpyridin-2-yl)piperidine-2,6-dione]
- DC50 [2]: 3.5 nM
- Dmax [2]: 51.9%
- DC50 (EGFR L858R (BaF3-L858R)): 11.9 nM
- Dmax (EGFR L858R (BaF3-L858R)): 73.5%
